From BigSolDB 2.1

CC(=O)c1c(C)c2cnc(Nc3ccc(N4CCNCC4)cn3)nc2n(C2CCCC2)c1=O
solubility (mole fraction)
Conditions | 293.15 K | 298.15 K | 303.15 K | 308.15 K | 313.15 K | 318.15 K | 323.15 K | 328.15 K | 333.15 K
in DMF | 6.17e-05 | 8.25e-05 | 0.000103 | 0.000131 | 0.000166 | 0.000202 | 0.000246 | 0.000293 | 0.000351
in DMSO | 6.57e-05 | 7.82e-05 | 9.62e-05 | 0.00012 | 0.000146 | 0.000172 | 0.000198 | 0.000246 | 0.000302
in THF | 7.14e-05 | 9.81e-05 | 0.000143 | 0.000189 | 0.00025 | 0.000329 | 0.000417 | 0.000536 | 0.000696
in acetone | 5.73e-05 | 7.32e-05 | 9.12e-05 | 0.000111 | 0.000138 | 0.000165 | 0.000199 | 0.000238 | 0.000278
in anisole | 1.32e-05 | 1.41e-05 | 1.51e-05 | 1.67e-05 | 1.79e-05 | 1.87e-05 | 1.98e-05 | 2.02e-05 | 2.17e-05
in chlorobenzene | 3.96e-05 | 5.28e-05 | 6.9e-05 | 8.91e-05 | 0.000116 | 0.000148 | 0.000189 | 0.000239 | 0.000302
in ethanol | 2.11e-05 | 2.66e-05 | 3.03e-05 | 3.61e-05 | 4.12e-05 | 4.81e-05 | 5.6e-05 | 6.41e-05 | 7.27e-05
in ethyl acetate | 1.44e-05 | 1.6e-05 | 2.06e-05 | 2.4e-05 | 3.08e-05 | 3.63e-05 | 4.42e-05 | 5.13e-05 | 5.98e-05
in m-xylene | 3.74e-05 | 4.12e-05 | 5.23e-05 | 6.44e-05 | 8.24e-05 | 9.8e-05 | 0.000119 | 0.000147 | 0.000171
in methanol | 1.1e-05 | 1.43e-05 | 1.97e-05 | 2.54e-05 | 3.43e-05 | 4.52e-05 | 5.71e-05 | 7.15e-05 | 9.01e-05
in o-xylene | 3.21e-05 | 3.62e-05 | 4.29e-05 | 4.88e-05 | 5.57e-05 | 6.38e-05 | 7.18e-05 | 8.16e-05 | 9.67e-05
in pyridine | 9.37e-05 | 0.000111 | 0.000127 | 0.000142 | 0.000159 | 0.000177 | 0.000196 | 0.000215 | 0.000236
in toluene | 4.72e-05 | 5.67e-05 | 6.78e-05 | 8.01e-05 | 9.44e-05 | 0.00011 | 0.000129 | 0.000152 | 0.000178
in water | 9.4e-06 | 1.18e-05 | 1.35e-05 | 1.7e-05 | 2.11e-05 | 2.52e-05 | 3.01e-05 | 3.63e-05 | 4.34e-05
